Reference: the supplement of paper PMC10307832

What was measured:
Assay in all cases: relative viability (nuclei count vs DMSO), 5 days (fraction); higher = more cells survive
[1] = test system: UMC-11
Method in brief: (§1)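 Each reported value is a median over duplicate plates. It expresses relative viability: treated-well nuclei count divided by vehicle-well nuclei count. Lung cancer cell lines in 1536-well plates were dosed by pin tool a day after seeding, alone with one drug or with a fixed anchor-drug dose plus five library-drug doses (not always all listed) in √10 steps, and nuclei were counted after 5 days.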

[2] = test system: NCI-H2228
Method in brief: as §1

[3] = test system: SK-LU-1
Method in brief: as §1

[4] = test system: NCI-H1734
Method in brief: as §1

[5] = test system: NCI-H1944
Method in brief: as §1

[6] = test system: NCI-H2009
Method in brief: as §1

[7] = test system: NCI-H1793
Method in brief: as §1

[8] = test system: LK-2
Method in brief: as §1

[9] = test system: NCI-H1993
Method in brief: as §1

[10] = test system: NCI-H23
Method in brief: as §1

[11] = test system: NCI-H838
Method in brief: as §1

[12] = test system: HCC-78
Method in brief: as §1

[13] = test system: COR-L23
Method in brief: as §1

[14] = test system: HARA
Method in brief: as §1

[15] = test system: EMC-BAC-2
Method in brief: as §1

[16] = test system: HCC-366
Method in brief: as §1

[17] = test system: LC-2-ad
Method in brief: as §1

[18] = test system: NCI-H2405
Method in brief: as §1

[19] = test system: HCC-15
Method in brief: as §1

[20] = test system: NCI-H2023
Method in brief: as §1

[21] = test system: A-427
Method in brief: as §1

[22] = test system: ABC-1
Method in brief: as §1

COc1cc(N2CCC(C(N)=O)CC2)ccc1Nc1nc(N)c(Cl)c(Nc2ccccc2S(=O)(=O)C(C)C)n1 [HG-5-88-01] + C[C@]1(O)C[C@@H](c2nc(-c3ccc4ccc(-c5ccccc5)nc4c3)c3c(N)nccn32)C1 [Linsitinib] (partner 1 µM)
relative viability ([1]; first compound 0.04 µM): 1.03
relative viability ([1]; first compound 0.1265 µM): 0.931
relative viability ([1]; first compound 0.4 µM): 0.698
relative viability ([1]; first compound 1.265 µM): 1.01
relative viability ([1]; first compound 4 µM): 1.1
relative viability ([2]; first compound 0.04 µM): 0.234
relative viability ([2]; first compound 0.1265 µM): 0.382
relative viability ([2]; first compound 0.4 µM): 0.389
relative viability ([2]; first compound 1.265 µM): 0.41
relative viability ([2]; first compound 4 µM): 0.315
relative viability ([3]; first compound 0.04 µM): 1.02
relative viability ([3]; first compound 0.1265 µM): 1
relative viability ([3]; first compound 0.4 µM): 1.09
relative viability ([3]; first compound 1.265 µM): 1.21
relative viability ([3]; first compound 4 µM): 0.996
relative viability ([4]; first compound 0.04 µM): 0.811
relative viability ([4]; first compound 0.1265 µM): 0.851
relative viability ([4]; first compound 0.4 µM): 0.964
relative viability ([4]; first compound 1.265 µM): 0.885
relative viability ([4]; first compound 4 µM): 1.02
relative viability ([5]; first compound 0.04 µM): 1.14
relative viability ([5]; first compound 0.1265 µM): 1.19
relative viability ([5]; first compound 0.4 µM): 1.19
relative viability ([5]; first compound 1.265 µM): 0.803
relative viability ([5]; first compound 4 µM): 1.31
relative viability ([6]; first compound 0.04 µM): 1.23
relative viability ([6]; first compound 0.1265 µM): 1.14
relative viability ([6]; first compound 0.4 µM): 1.23
relative viability ([6]; first compound 1.265 µM): 1.12
relative viability ([6]; first compound 4 µM): 1.17
relative viability ([7]; first compound 0.1265 µM): 1.05
relative viability ([7]; first compound 0.4 µM): 0.856
relative viability ([7]; first compound 1.265 µM): 0.809
relative viability ([7]; first compound 4 µM): 1.18
relative viability ([8]; first compound 0.04 µM): 0.591
relative viability ([8]; first compound 0.1265 µM): 0.519
relative viability ([8]; first compound 0.4 µM): 0.634
relative viability ([8]; first compound 4 µM): 0.768
relative viability ([9]; first compound 0.04 µM): 0.807
relative viability ([9]; first compound 0.1265 µM): 0.697
relative viability ([9]; first compound 0.4 µM): 0.732
relative viability ([9]; first compound 1.265 µM): 0.61
relative viability ([9]; first compound 4 µM): 0.722
relative viability ([10]; first compound 0.04 µM): 0.628
relative viability ([10]; first compound 0.1265 µM): 0.621
relative viability ([10]; first compound 0.4 µM): 0.652
relative viability ([10]; first compound 1.265 µM): 0.73
relative viability ([10]; first compound 4 µM): 0.61
relative viability ([11]; first compound 0.04 µM): 0.972
relative viability ([11]; first compound 0.1265 µM): 1.07
relative viability ([11]; first compound 0.4 µM): 0.885
relative viability ([11]; first compound 1.265 µM): 0.915
relative viability ([11]; first compound 4 µM): 0.956
relative viability ([12]; first compound 0.04 µM): 0.574
relative viability ([12]; first compound 0.1265 µM): 0.401
relative viability ([12]; first compound 0.4 µM): 0.273
relative viability ([12]; first compound 1.265 µM): 0.222
relative viability ([12]; first compound 4 µM): 0.263
relative viability ([13]; first compound 0.04 µM): 0.885
relative viability ([13]; first compound 0.1265 µM): 0.888
relative viability ([13]; first compound 0.4 µM): 0.872
relative viability ([13]; first compound 1.265 µM): 0.738
relative viability ([13]; first compound 4 µM): 0.757
relative viability ([14]; first compound 0.04 µM): 0.946
relative viability ([14]; first compound 0.1265 µM): 0.916
relative viability ([14]; first compound 0.4 µM): 0.909
relative viability ([14]; first compound 1.265 µM): 1
relative viability ([14]; first compound 4 µM): 0.92
relative viability ([15]; first compound 0.04 µM): 0.79
relative viability ([15]; first compound 0.1265 µM): 0.849
relative viability ([15]; first compound 0.4 µM): 0.771
relative viability ([15]; first compound 1.265 µM): 0.758
relative viability ([15]; first compound 4 µM): 0.851
relative viability ([16]; first compound 0.04 µM): 0.573
relative viability ([16]; first compound 0.1265 µM): 0.558
relative viability ([16]; first compound 0.4 µM): 0.492
relative viability ([16]; first compound 1.265 µM): 0.608
relative viability ([16]; first compound 4 µM): 0.912
relative viability ([17]; first compound 0.04 µM): 0.817
relative viability ([17]; first compound 0.1265 µM): 0.861
relative viability ([17]; first compound 0.4 µM): 0.862
relative viability ([17]; first compound 1.265 µM): 0.852
relative viability ([17]; first compound 4 µM): 0.92
relative viability ([18]; first compound 0.04 µM): 1.06
relative viability ([18]; first compound 0.1265 µM): 1.01
relative viability ([18]; first compound 0.4 µM): 0.807
relative viability ([18]; first compound 1.265 µM): 0.714
relative viability ([18]; first compound 4 µM): 1.02
relative viability ([19]; first compound 0.04 µM): 0.862
relative viability ([19]; first compound 0.1265 µM): 0.837
relative viability ([19]; first compound 0.4 µM): 0.92
relative viability ([19]; first compound 1.265 µM): 0.835
relative viability ([19]; first compound 4 µM): 0.763
relative viability ([20]; first compound 0.04 µM): 0.695
relative viability ([20]; first compound 0.1265 µM): 0.683
relative viability ([20]; first compound 0.4 µM): 0.619
relative viability ([20]; first compound 1.265 µM): 0.539
relative viability ([20]; first compound 4 µM): 0.762
relative viability ([21]; first compound 0.04 µM): 1.07
relative viability ([21]; first compound 0.1265 µM): 1.11
relative viability ([21]; first compound 0.4 µM): 1.15
relative viability ([21]; first compound 1.265 µM): 1.14
relative viability ([21]; first compound 4 µM): 1.09
relative viability ([22]; first compound 0.04 µM): 0.679
relative viability ([22]; first compound 0.1265 µM): 0.894
relative viability ([22]; first compound 0.4 µM): 0.815
relative viability ([22]; first compound 1.265 µM): 0.668
relative viability ([22]; first compound 4 µM): 1.01
